Test results as given in patent US12115222B2, “Compositions and methods for improving the solubility of erectile dysfunction therapeutics” (Villya LLC, priority 2023, dated 2024).
Where a name gives a salt, the structure may show the parent alone. Read-outs that look alike come from different tables or passages of the source.

Experiments:
[1] = cited from earlier work
[2] = From the text: After solubilizing the sugar and the compound in ethanol or aqueous ethanol, the ethanol is evaporated for example under a high rotary vacuum. The powder resulting from the evaporation step is then resolubilized (dissolved) in water. Another solvent can be methanol at 80% methanol, 95% (ACS grade) or greater (to 100% methanol) as well as combinations of methanol and ethanol or methanol and water. After solubilizing the sugar and the compound in ethanol or aqueous ethanol, the ethanol is evaporated for example under a high rotary vacuum. The powder resulting from the evaporation step is then resolubilized (dissolved) in water.
Generally, ingredients are deposited into a sealed container with ethanol and vortex-mixed to form a solution. The solution is subjected to centrifugation. The ethanol is evaporated off and the dried mixture was dissolved in water. This mixture is centrifuged again and the supernatant is filtered through a membrane. […] In one embodiment, the admixing process involves dissolving the PSD and sugar in the ethanol while stirring and adjusting the pH as necessary to obtain complete dissolution and a clear reaction mixture. The reaction mixture can then be dried to remove the ethanol. No further water washing or filtering is needed.
In this example, an oven-dried single-neck RB flask equipped with a magnetic stir bar was used. […] The reaction mixture was vigorously stirred at room temperature for 30 min at 20° C. […] The white solid was dried using vacuum drying performed at room temperature and a high vacuum pump for about one hour to remove the ethanol (EtOH) completely using an Edvards Model #RV8 […], a Heidolph type Basis Hei-VAP Value, No. 560-00000-0101. The high vacuum pump was connected to a cooling trap and the trap was connected to the RB flask. Vacuum strength was about 1 mm Hg.
The white foamy solid was dried over a high vacuum at room temperature for an additional hour to remove the water completely, by ascertaining changes in weight loss. Drying continued until further weight loss was not observed.
Step 1: In an oven-dried single neck RB flask equipped with magnetic stir and septa (flask cap), 5 mg sildenafil (0.01054 mmol) and 16.95 mg stevioside (1:2 molar ratio) were weighed into the RB flask and dissolved in 85% ethanol (˜2.0 mL, denatured 85% ethanol) at ambient temperature. The reaction mixture was vigorously stirred at room temperature for 30 min. […] The white solid was dried over a high vacuum for an hour to remove the ethanol completely (no further reduction in weight was observed).
Step 2: The obtained white solid was then dissolved in 2.0 mL water at room temperature in an RB flask with a magnetic stir bar. The reaction mixture was stirred at ambient temperature for 30 min. […] The white foamy solid was dried over a high vacuum at room temperature for an additional hour to remove the water completely. The weight of the flask was checked while drying until no further weight loss was observed.

[3] = Non-caloric sugar solubility in water and 95% ethanol
Method: In this experiment, the following sugars were compared for solubility: rubusoside, dulcoside A, rebaudioside B, dulcoside B, and rebaudioside D. Approximately 5.0 mg of each sugar was attempted to be dissolved in 0.6 mL water and vortexed for 2 minutes at room temperature.
In another experiment, 50 mg stevia was dissolved in either 2.0 mL water or 2.0 mL 95% ethanol.

[4] = cited from earlier work; remark: listed apart in the source
[5] = approximately 5.0 mg in 0.6 mL water, vortexed 2 minutes, room temperature

## Nc1nc2c(ncn2COCCO)c(=O)[nH]1 [Acyclovir]
[1]; drug alone
  water solubility: less than 1 mg/mL

## CCCCC[C@H](O)/C=C/[C@H]1[C@H](O)CC(=O)[C@@H]1CCCCCCC(=O)O [Alprostadil, (1R,2R,3R)-3-Hydroxy-2-[(E)-(3S)-3-hydroxy-1-octenyl]-5-oxocyclopentane heptanoic acid]
[2]
  solubility of the complex in water by NMR: 100%
[1]
  solubility in DMSO: soluble
[1]; distilled water
  solubility in distilled water: 8000 μg per 100 mL
[1]; drug alone
  solubility in water: insoluble
  water solubility: less than 1 mg/mL
[1]; printed over two lines: nearly / insoluble
  solubility in ethanol, ether and ethyl acetate: insoluble in ethanol, ether

## COc1ccc(CN=c2[nH]c(N3CCC[C@H]3CO)ncc2C(=O)NCc2ncccn2)cc1Cl [Avanafil, 4-[(3-chloro-4-methoxyphenyl)methylamino]-2-[(2S)-2-(hydroxymethyl)pyrrolidin-1-yl]-N-(pyrimidin-2-ylmethyl)pyrimidine-5-carboxamide]
[2]
  solubility in water by NMR: 100%
[1]; at 25° C.
  solubility in DMSO: Soluble in DMSO (97 mg/ml
[1]
  solubility in DMSO: soluble

## O=C(CO)[C@@H](O)[C@H](O)[C@H](O)CO [D-fructose]
[3]; Example 22, 200 mg, 20° C.
  solubility of the sugar in 95% ethanol (observation): not soluble
  solubility of the sugar in water (observation): soluble
[4]
  Sugar Solubility in 95% EtOH: Insoluble

## CC(=O)O[C@H]1C(=O)[C@@]2(C)[C@H]([C@H](OC(=O)c3ccccc3)[C@]3(O)C[C@H](OC(=O)[C@H](O)[C@@H](NC(=O)c4ccccc4)c4ccccc4)C(C)=C1C3(C)C)[C@]1(OC(C)=O)CO[C@@H]1C[C@@H]2O [Paclitaxel]
[2]
  Solubility of Paclitaxel In Ethanol, With Rubusoside: Soluble
  Solubility of Paclitaxel In Water after first being dissolved in EtOH, With Rubusoside: Insoluble
  Solubility of Paclitaxel In Water, With Rubusoside: Insoluble

## CC1(C)S[C@@H]2[C@H](NC(=O)COc3ccccc3)C(=O)N2[C@H]1C(=O)O [Penicillin V HCl, phenoxymethylpenicillinic acid]
[2]
  Solubility In 95% Ethanol, With Rubusoside (table of Example 25): Soluble
  Solubility In Water after first being dissolved in EtOH, With Rubusoside (table of Example 25): Soluble
  Solubility In Water, With Rubusoside (table of Example 25): Soluble
  Solubility of Penicillin V HCl In Ethanol, With Rubusoside: Soluble
  Solubility of Penicillin V HCl In Water after first being dissolved in EtOH, With Rubusoside: Soluble
  Solubility of Penicillin V HCl In Water, With Rubusoside: Soluble
[1]; Example 24
  Solubility of Penicillin V HCl In Ethanol, Without Rubusoside: Soluble
  Solubility of Penicillin V HCl In Water, Without Rubusoside: 0.636 mg/mL or at
[1]; Example 24, pH 1.8 acidified with HCl
  Solubility of Penicillin V HCl In Water, Without Rubusoside: HCl at 24 mg/100 mL
[1]; Example 25 (acyclovir and rubusoside), at 55° C.
  Solubility In Water, Without Rubusoside (table of Example 25): 1 mg/mL at 55 °C
[1]; Example 25 (acyclovir and rubusoside), at pH 1.8
  Solubility In Water, Without Rubusoside (table of Example 25): 24 mg/100 mL at
[1]; Example 25 (acyclovir and rubusoside)
  Solubility In 95% Ethanol, Without Rubusoside (table of Example 25): Soluble

## C=C1C[C@@]23CC[C@H]4[C@@](C)(CCC[C@@]4(C)C(=O)O[C@@H]4O[C@H](CO)[C@@H](O)[C@H](O)[C@H]4O)[C@@H]2CC[C@]1(O[C@@H]1O[C@H](CO)[C@@H](O)[C@H](O)[C@H]1O)C3 [Rubusoside]
[3]; [5]
  solubility of the sugar in water (observation): No undissolved
[4]
  Sugar Solubility in 95% EtOH: 10 mg/mL
  Sugar Solubility in Water: Soluble

## C=C1C[C@@]23CC[C@H]4[C@@](C)(CCC[C@@]4(C)C(=O)O[C@@H]4O[C@H](CO)[C@@H](O)[C@H](O)[C@H]4O)[C@@H]2CC[C@]1(O[C@@H]1O[C@H](CO)[C@@H](O)[C@H](O)[C@H]1O[C@@H]1O[C@H](CO)[C@@H](O)[C@H](O)[C@H]1O)C3 [Stevioside]
[4]
  Sugar Solubility in 95% EtOH: 30 mg/mL
  Sugar Solubility in Water: 4 g/L

## CN1CC(=O)N2[C@H](c3ccc4c(c3)OCO4)c3[nH]c4ccccc4c3C[C@@H]2C1=O [Tadalafil, (2R,8R)-2-(1,3-benzodioxol-5-yl)-6-methyl-3,6,17-triazatetracyclo[8.7.0.0^3, 8.0^11, 16]heptadeca-1(10),11,13,15-tetraene-4,7-dione]
[2]
  improvement in water solubility: ~2.3%
[2]; Example 31, Tadalafil:Tween 80 1:5 molar, after 3 minutes
  appearance of the dried gel in water: white and turbid solution
[2]; Example 31, tadalafil:P188:stevioside 1:10:5 molar
  appearance of the dried mixture in 3 mL water: white turbid solution
[2]; Example 31, tadalafil:P-188 1:10
  appearance of the dried mixture in water: turbid solution
[2]; Example 31, tadalafil:Tween 20 1:5 molar
  appearance of the dried mixture in 2.0 mL water: white turbid solution with solids still visible
[2]; Example 31, tadalafil:glycerol:stevioside 1:20:5
  appearance of the dried mixture in 3.0 mL water: white turbid solution
[2]; Example 31, tadalafil:glycerol:stevioside 1:20:5, 10 mg citric acid monohydrate, pH about 3.0
  low-intensity drug peaks by NMR: 2-3%
[2]; Example 31, tadalafil:glycerol:stevioside 1:30:5, citric acid, pH about 3.0
  appearance of the dried mixture in 3.0 mL water: white turbid
[2]; Example 31, tadalafil:stevioside 1:3 molar, citric acid in step 1
  appearance of the dried mixture in water: white turbid solution
[2]; Example 31, tadalafil:stevioside 1:10 molar, buffer pH 9.4 added in water
  appearance of the dried powder in 2 mL water: white turbid solution
[2]; Example 31, tadalafil:stevioside 1:10 molar, carbonate buffer pH 9.4 in step 1
  appearance of the dried mixture in water: white and turbid
[2]; pH 2.5
  solubility of the complex in water: not 100% soluble
[1]; at 25° C.
  solubility in water: 220 mg/L at 25 °C in water
[1]
  solubility in chloroform: soluble

## CCCOc1ccc(S(=O)(=O)NCCC2CCCN2C)cc1-c1nc2c(CCC)nn(C)c2c(=O)[nH]1 (centres unmarked) [Udenafil]
[1]
  solubility in DMSO: soluble
[1]; drug alone
  water solubility: about 0.0798 mg/mL

## CCCc1nc(C)c2c(=O)[nH]c(-c3cc(S(=O)(=O)N4CCN(CC)CC4)ccc3OCC)nn12 [Vardenafil HCl]
[2]
  solubility of the complex in water by NMR: 100%
[1]; at 28° C., solids remain present at 22° C.
  solubility in DMSO: soluble
[1]
  solubility in chloroform: insoluble

## CCCc1nc(C)c2c(=O)[nH]c(-c3cc(S(=O)(=O)N4CCN(CC)CC4)ccc3OCC)nn12 [Vardenafil, 2-[2-ethoxy-5-(4-ethylpiperazin-1-yl)sulfonylphenyl]-5-methyl-7-propyl-3H-imidazo[5,1-f][1,2,4]triazin-4-one]
[1]; at 25° C., Estimated
  solubility in water: 3.5 mg/L at 25° C./

## C=C1C[C@@]23CC[C@H]4[C@@](C)(CCC[C@@]4(C)C(=O)O[C@@H]4O[C@H](CO)[C@@H](O)[C@H](O)[C@H]4O)[C@@H]2CC[C@]1(O[C@@H]1O[C@H](CO)[C@@H](O)[C@H](O[C@@H]2O[C@H](CO)[C@@H](O)[C@H](O)[C@H]2O)[C@H]1O[C@@H]1O[C@@H](C)[C@H](O)[C@@H](O)[C@H]1O)C3 [dulcoside B]
[3]; [5]
  solubility of the sugar in water (observation): partially soluble
[4]
  Sugar Solubility in 95% EtOH: Slightly soluble
  Sugar Solubility in Water: Partly soluble

## CCCCCCCCCCCCO[C@@H]1O[C@H](CO)[C@@H](O[C@H]2O[C@H](CO)[C@@H](O)[C@H](O)[C@H]2O)[C@H](O)[C@H]1O [n-Dodecyl-β-D-maltoside]
[3]; 50 mg in 2.0 mL 95% ethanol
  solubility of the sugar in 95% ethanol (observation): soluble
[3]; 50 mg in 2.0 mL water
  solubility of the sugar in water (observation): soluble
[4]
  Sugar Solubility in 95% EtOH: Soluble
  Sugar Solubility in Water: 50 g/L

## C[C@]12C=CC(=O)C=C1CC[C@@H]1[C@@H]2C(=O)C[C@@]2(C)[C@H]1CC[C@]2(O)C(=O)CO [prednisone]
[2]; Example 23, rubusoside 50 mg : prednisone 5 mg
  appearance of the dried powder re-dissolved in 2 mL deionized water: white turbid mixture

## OC[C@H]1O[C@@](CO)(O[C@H]2O[C@H](CO)[C@@H](O)[C@H](O)[C@H]2O)[C@@H](O)[C@@H]1O [sucrose]
[4]
  Sugar Solubility in 95% EtOH: Insoluble
  Sugar Solubility in Water: 204 g/100 g water

## C[C@]12CC[C@H]3[C@@H](CCC4=CC(=O)CC[C@@]43C)[C@@H]1CC[C@@H]2OC(=O)CCC1CCCC1 [testosterone cypionate]
[2]; rubusoside 23.4 mg : testosterone cypionate 5 mg (3:1 sugar-to-drug)
  appearance of the dried mixture dissolved in water: white turbid solution
[2]; testosterone cypionate:stevioside 1:10 molar
  appearance of the dried powder in 2 mL water: white-turbid solution
